Values after ≈ are worked out from the molar mass of the structure shown.
Assays:
[1] = system: Gram-negative organisms (ATCC and CAN-ICU strains); test: MIC, Gram-negative organisms (compounds ending in A); type: cell-based; conditions: in words; Table 3 organisms
Method: (§1) The minimum inhibitory concentrations (MIC) in μg/mL were determined using established methods (Clinical and Laboratory Standards Institute, 2006) and are shown in Table 3 (FIG. 17). Gentamicin, neomycin B and kanamycin A served as positive controls.

[2] = system: Gram-positive organisms (ATCC and CAN-ICU strains); test: MIC, Gram-positive organisms (compounds ending in A); type: cell-based; conditions: in words; Table 3 organisms
Method: as §1

[3] = system: Microorganisms from ATCC and CAN-ICU; test: MIC, all investigated bacteria (compounds ending in A); type: cell-based; conditions: in words; vs 4A
Method: as §1

[4] = system: methicillin-resistant S. epidermidis (MRSE) (ATCC 14990); test: MIC, antibiotic susceptibility testing, MRSE (compounds 13-31); type: cell-based, Staphylococcus epidermidis; conditions: vs kanamycin A
Method: (§2) Standard reference antibiotic susceptibility testing methods (NCCLS[CLS] (Clinical and Laboratory Standards Institute, 2006)) agar or dilutional methods was used to assess the activity of all prepared antimicrobials. Compounds were tested against Gram-positive strains including S. aureus, methicillin-resistant S. aureus (MRSA), S. epidermidis, methicillin-resistant S. epidermidis (MRSE) and S. pneumoniae as well as Gram-negative strains E. coli, gentamycin resistant E. coli and P. aeruginosa. Gentamycin and neomycin served as positive controls. MIC values defined as the lowest concentration of antimicrobial agent which inhibits the development of visible growth after 24 h at 37° C. was determined.

[5] = system: methicillin-resistant S. aureus (MRSA) ATCC 33592; test: MIC, antibiotic susceptibility testing, MRSA; type: cell-based, Staphylococcus aureus; conditions: for fold enhancement against MRSA when compared to neomycin: vs neomycin
Method: as §2, §1

[6] = system: gentamycin resistant E. coli (ATCC 6174); test: MIC, gentamycin resistant E. coli (compounds 13-31); type: cell-based; conditions: in words
Method: as §2

[7] = system: E. coli (ATCC 25922); test: MIC, E. coli (compounds 13-31); type: cell-based; conditions: in words
Method: as §2

[8] = system: MSSA (methicillin-susceptible S. aureus); conditions: fatty acid against MSSA; cited from earlier work
[9] = system: MRSA; conditions: fatty acid against MRSA; cited from earlier work
[10] = system: P. aeruginosa (ATCC 27853); test: MIC, P. aeruginosa (compounds 13-31); type: cell-based, Pseudomonas aeruginosa; conditions: in words; among neomycin-lipid conjugates
Method: as §2

1,3,2′,6′-Tetraammonium-4,5,3′,4′-tetra-O-phenylcarbamoyl-neamine-tetrafluoroacetate [Compound 17A]
Gram-negative activity [1]: higher
Gram-positive antibacterial activity [2]: reduced

1,3,6′,3″-Tetraammonium-5,2′,4′,2″,3″,4″-hexa-O-phenylcarbamoyl-6″ hexadecanoyl-6″-deoxy-kanamycin-tetrafluoroacetate [Compound 14A]
Gram-negative activity [1]: poor
Gram-positive antibacterial activity [2]: poor

4,3′,4′,2″,5″3′″,4″-Hexa-O-phenylcarbamoyl-1,3,2′,6′,2′″,6′″-hexa-N-(guanidinyl)-5″-deoxy-neomycin-hexafluoroacetate [Compound 9A]
antibacterial activity when compared to 4A [3]: slightly reduced

CCCCCCCCCCCCCCCC(=O)NCC1OC(OC2C(N)CC(N)C(OC3OC(CN)C(O)C(O)C3O)C2O)C(O)C(N)C1O.O=C(O)C(F)(F)F.O=C(O)C(F)(F)F.O=C(O)C(F)(F)F.O=C(O)C(F)(F)F (stereo not drawn) [Compound 30, 1,3,6′,3″-Tetraammonium-6″-deoxy-6″-N-(hexadecanoyl)-kanamycin-tetrakis-(trifluoroacetate)]
fold enhancement in antimicrobial activity against MRSE when compared to unmodified kanamycin A [4]: 56 fold
fold enhancement in antimicrobial activity against MRSA when compared to unmodified kanamycin A ([5]; MRSA, vs kanamycin A): 35 fold

1,3,6′,3″-Tetraammonium-5,2″,4″,6″,2′″,3′″,4′″-hepta-β-phenylcarbamoyl-6″-deoxy-kanamycin-tetrafluoroacetate [Compound 11A]
Gram-negative activity [1]: poor
Gram-positive antibacterial activity [2]: reduced

1,3,2′,6′,2′″,6″-Hexaammonium-5″-deoxy-5″-N-(hexadecanoyl)-neomycin hexakis(trifluoroacetate) [Compound 15]
fold enhancement against MRSA when compared to neomycin ([5]; MRSA): 32 fold

CCCCCC(=O)NCC1OC(OC2C(O)C(N)CC(N)C2OC2OC(CN)C(O)C(O)C2N)C(O)C1OC1OC(CN)C(O)C(O)C1N.O=C(O)C(F)(F)F.O=C(O)C(F)(F)F.O=C(O)C(F)(F)F.O=C(O)C(F)(F)F.O=C(O)C(F)(F)F.O=C(O)C(F)(F)F (stereo not drawn) [Compound 13, 1,3,2′,6′,2′″,6″-Hexaammonium-5″-deoxy-5″-N-(hexanoyl)-neomycin hexakis(trifluoroacetate)]
activity against gentamycin-resistant E. coli relative to the C16- or C20-lipid conjugates [6]: stronger activity
activity against E. coli relative to the C16- or C20-lipid conjugates [7]: stronger activity

3,6′,3″,1′″-Tetraammonium-5,2′,4′,2″,3″,4″-hexa-O-phenylcarbamoyl-6″-deoxy-amikacin-tetrafluoroacetate [Compound 20A]
Gram-negative activity [1]: poor
Gram-positive antibacterial activity [2]: reduced

neomycin [reference compound]
MIC ([5]; against MRSA, 24 h at 37° C.): ~8 mg/L

1,3,2′,6′,2′″,6′″-Hexaammonium-6,3′,4′,2″,5″,4′″-hexa-β-phenylcarbamoyl-5″-hexadecanoyl-5″-deoxy-neomycin-hexafluoroacetate [Compound 7A]
Gram-negative activity [1]: poor
Gram-positive antibacterial activity [2]: poor

CCCCCCCCCCCC(=O)O [lauric acid]
MIC [8]: 400 mg/L (≈ 2000 µM)
MIC [9]: 400 mg/L (≈ 2000 µM)

1,3,2′,6′,2′″,6″-Hexaammonium-5″-deoxy-5″-N-(nonadecanoyl)-neomycin hexakis(trifluoroacetate) [Compound 16]
antimicrobial activity against P. aeruginosa [10]: optimal
fold enhancement against MRSA when compared to neomycin ([5]; MRSA): 32 fold

Reference: patent US8865664B2, “Hydrophobically enhanced aminoglycosides” (University of Manitoba, priority 2008, dated 2014)
